Drawing on ChEMBL document CHEMBL1155119, “Identification of novel inhibitors of methionyl-tRNA synthetase (MetRS) by virtual screening” (Bioorg Med Chem Lett, 2008), this text covers IC50 and inhibition for 28 compounds.

One may read the IC50 as the point on the concentration scale where inhibition reaches its midpoint. As a reminder, the inhibition is the share of the control response that was lost under treatment.

Experiment [1] can be described thus: Inhibition of Staphylococcus aureus MetRS assessed as decrease in […] incorporation by SPA.
The test system of experiment [2] is Staphylococcus aureus. Description: Inhibition of Staphylococcus aureus MetRS assessed as decrease in […] incorporation at 100 uM by SPA.
For experiment [3], the system named is Staphylococcus aureus. Put plainly: Inhibition of Staphylococcus aureus MetRS assessed as decrease in […] incorporation at 40 uM by SPA.

Regarding `O=C(NCc1nc2ccccc2[nH]1)[C@@H]1CC(O)CN1Cc1ccc(Cl)cc1Cl` (some centres not stated), the half-maximal inhibitory concentration (IC50) in experiment [1] was 0.21 µM.

With `O=C(Nc1ccccc1O)c1cc(C(=O)Nc2ccccc2O)cc(N2C(=O)c3ccccc3C2=O)c1`, the IC50 in experiment [1] worked out at 11.5 µM. For the same compound, the inhibition with Staphylococcus aureus [2] was determined as 92%.

Turning to `Cc1cccc(C(=O)Nc2nnc(CC(=O)N/N=C/c3ccc(O)cc3O)s2)c1`, in experiment [1], the IC50 was 46.3 µM. Besides, the inhibition in the experiment on Staphylococcus aureus [2] came out at 84%.

Take `S=C(Nc1ccccc1)Nc1nc2ccccc2n1CCOc1ccccc1Cl`: the IC50 in experiment [1] worked out at 25.3 µM. The inhibition with Staphylococcus aureus [2] is 66%.

Take `Clc1ccc(-c2ccc(-c3cc(-c4nnn[nH]4)nn3-c3cccnc3)cc2)c(Cl)c1`: the IC50 in experiment [1] worked out at 0.13 µM.

`O=C(CNC(=O)c1ccc(Cl)cc1)N/N=C/c1c(O)ccc2ccccc12`: in experiment [1], the IC50 is 26.6 µM. Besides, the inhibition in the experiment on Staphylococcus aureus [2] stood at 80%.

Turning to `Cc1cc(Cl)ccc1NC(=O)CCC(=O)N/N=C/c1ccccc1O`, the IC50 in experiment [1] is 94.9 µM. Besides, in the experiment on Staphylococcus aureus [2], the inhibition stood at 91%.

Consider `O=C(Nc1cc(Cl)ccc1O)c1cnn2c1NC(c1ccc(Br)cc1)CC2C(F)(F)F` (configuration not stated), for which, in the experiment on Staphylococcus aureus [2], the inhibition was 47%.

On to `O=C(CSc1ccc2ccccc2n1)N/N=C/c1ccccc1O`, for which, in the experiment with Staphylococcus aureus [2], the inhibition is 47%.

For the compound `O=C(CSc1nc2ccccc2n1Cc1ccccc1)N/N=C/c1ccccc1O`, the inhibition in the experiment on Staphylococcus aureus [2] was 76%; in the experiment with Staphylococcus aureus [3], 52%.

`O=C(Nc1cccc(O)c1)c1cnn2c1NC(c1ccc(Br)cc1)CC2C(F)(F)F` (configuration not stated): the IC50 in experiment [1] was 8.3 µM. For the same compound, the inhibition in the experiment with Staphylococcus aureus [2] was 55%.

`O=C(/N=N/c1nc(Nc2ccccc2)nc(N2CCOCC2)n1)Nc1ccc(Cl)cc1`: the results for the inhibition with Staphylococcus aureus [2] and in the experiment on Staphylococcus aureus [3] were 81% and 34%, respectively.

With `O=C(NC(C(=O)N/N=C/c1ccccc1O)c1n[nH]c(=O)c2ccccc12)c1ccccc1` (configuration not stated), the IC50 in experiment [1] was 35.6 µM. Besides, in the experiment on Staphylococcus aureus [2], the inhibition turned out to be 52%.

Turning to `Nc1nn(CCO)c2cc(-c3ccc(Cl)cc3Cl)ccc12`, the concentration for half-maximal inhibition (IC50) in experiment [1] was determined as 0.57 µM.

In the case of `O=C(CCCOc1ccc(Cl)cc1Cl)N/N=C/c1ccccc1O`, in experiment [1], the IC50 amounted to 4.8 µM. Also, the inhibition in the experiment on Staphylococcus aureus [2] is 86%.

For `O=C(Nc1cccc(O)c1)c1cnn2c1NC(c1cccs1)CC2C(F)(F)F` (configuration not stated), the IC50 in experiment [1] worked out at 5.7 µM. Also, the inhibition in the experiment with Staphylococcus aureus [2] came to 83%.

On to `O=C(CSc1nc2ccccc2n1Cc1ccc(Cl)cc1)N/N=C/c1ccccc1O`, for which the IC50 in experiment [1] is 56 µM. The inhibition in the experiment on Staphylococcus aureus [2] was 82%.

Turning to `O=C(N/N=C/c1ccc(O)cc1O)c1cc(-c2ccccc2)nc2ccccc12`, the half-maximal inhibitory concentration (IC50) in experiment [1] is 46.5 µM. Also, in the experiment with Staphylococcus aureus [2], the inhibition stood at 87%.

Consider `Cc1ccc(S(=O)(=O)N2CCC(C(=O)N/N=C/c3ccccc3O)CC2)cc1`, for which the IC50 in experiment [1] was 40.8 µM. Moreover, the inhibition in the experiment with Staphylococcus aureus [2] came out at 61%.

As for `S=C(Nc1ccccc1)Nc1nc2ccccc2n1CCOc1ccc(Cl)cc1`, the IC50 in experiment [1] was 86.8 µM. Besides, the inhibition with Staphylococcus aureus [2] turned out to be 67%.

Regarding `O=C(Nc1cccc(Cl)c1)Nc1sc2c(c1-c1nc3ccccc3s1)CCCC2`, in experiment [1], the IC50 came to 6.3 µM. Also, the inhibition with Staphylococcus aureus [2] came to 80%.

`O=C(Cn1nnc(-c2ccccc2)n1)N/N=C/c1ccc(O)cc1O`: the inhibition in the experiment on Staphylococcus aureus [2] was determined as 45%.

In the case of `NC(=O)[C@H](Cc1ccc(O)cc1)NC(=O)[C@@H]1CCN1/C=C1\N=C(c2ccc(Cl)cc2Cl)OC1=O`, the IC50 in experiment [1] worked out at 0.07 µM.

`O=C(O)c1ccc(OCc2ccc(Cl)cc2Cl)c(OCc2nc3ccccc3[nH]2)c1`: in experiment [1], the IC50 stood at 0.02 µM.

As for `O=c1cc(NCCCNC2CCOc3c(Br)cc(Br)cc32)[nH]c2ccccc12` (configuration not stated), in experiment [1], the half-inhibitory concentration (IC50) amounted to 0.008 µM.

For `COc1ccc(O)c(/C=N/NC(=O)CCC(=O)Nc2ccc(Br)cc2)c1`, in experiment [1], the half-inhibitory concentration (IC50) was found to be 41.7 µM. For the same compound, the inhibition with Staphylococcus aureus [2] came to 72%.

`COc1ccc(O)c(/C=N/NC(=O)CNC(=O)c2ccc(Cl)cc2)c1`: the inhibition in the experiment with Staphylococcus aureus [2] was found to be 91%; in the experiment with Staphylococcus aureus [3] it was 35%.

As for `O=C(Nc1ccccc1C(=O)N/N=C/c1ccccc1O)c1ccc(Cl)cc1`, the half-maximal inhibitory concentration (IC50) in experiment [1] turned out to be 23.6 µM. In the experiment with Staphylococcus aureus [2], the inhibition was determined as 77%.
